Measured values as given in PMC9545474, “Anticancer Water‐Soluble Organoruthenium Complexes: Synthesis and Preclinical Evaluation” (Chembiochem, 2022).
Where a name gives a salt, the structure may show the parent alone. Read-outs that look alike come from different tables or passages of the source.

Assays:
[1] = system: PNT2 non-cancerous human prostate cells; test: 24-hour MTT chemosensitivity assay with 72-hour recovery, PNT2; assay type: cell-based
Procedure: (§1) Chemosensitivity studies were undertaken using a 24‐hour MTT assay, with a 72‐hour recovery period. The IC50 values were determined against ovarian A2780 (cisplatin‐sensitive) and A2780cisR (cisplatin‐resistant) cancer cell lines, non‐small‐cell lung H460 cancer cell line, and normal prostate PNT2 cell line, exposed to each of compounds 4–8, cisplatin or the phosphine ligands (Table 1 and S4, Figures S29–S31). […] This is unusual but can be related to solubility issues not visible for the naked eye and thus hindering its activity in cells. […] When tested on their own, the phosphine ligands are not active below 100 μM for all four cell lines. […] This therefore prevents comparison with the well‐known RAPTA family, and more especially with RAPTA−C which bears a PTA ligand and a p‐cym ligand, making this complex relatively similar in terms of geometry with complex 4.[21] […] This confirms the interest of the sulfur coordinating atom in terms of cytotoxicity for organoruthenium complexes.[23]
(§2) Chemosensitivity assay: In vitro chemosensitivity tests were performed against A2780, A2780cisR, PNT2 and H460 cells. Cells were routinely maintained as monolayer cultures in RPMI 1640 medium supplemented with 10 % foetal calf serum, penicillin (100 I.U./mL) and streptomycin (100 μg/mL), sodium pyruvate (1 mM) and L‐glutamine (2 mM). For chemosensitivity studies, cells were seeded in 96‐well plates at a concentration of 7.5×10^3 cells per well and the plates were incubated for 24 h at 37 °C and a 5 % CO2 humidified atmosphere prior to drug exposure.
(§3) Complexes were dissolved in either DMSO (complexes 4, 5, and 8) or PBS (complexes 6 and 7) to provide stock solutions which were further diluted with media to provide a range of final concentrations. Drug‐media solutions were added to cells (the final concentration of DMSO was less than 1 % (v/v) in all cases) and incubated for 24 h at 37 °C and a 5 % CO2 humidified atmosphere. The drug‐media solution was removed from the wells and the cells were washed with PBS (100 μL, twice) and 200 μL of complete fresh media were added to each well. The plates were further incubated for 72 h at 37 °C and a 5 % CO2 humidified atmosphere to allow for a period of recovery. 3‐(4,5‐dimethylthiazol‐2‐yl)‐2,5‐diphenyltetrazolium bromide (MTT) (40 μL, 2.5 mg/mL) was added to each well and plates were incubated for 2 h. All solutions were then removed and 100 μL of DMSO was added to each well in order to dissolve the purple formazan crystals. A Thermo Scientific Multiskan EX microplate photometer was used to measure the absorbance in each well at 570 nm. Cell survival was determined as the absorbance of treated cells divided by the absorbance of controls and expressed as a percentage. The IC50 values were determined from plots of % survival against drug concentration. Each experiment was repeated in triplicates of triplicates and a mean value was obtained and stated as IC50 (μM) ± SD. Untreated cells were used as a negative control, and cells treated with cisplatin were used as a positive control.

[2] = system: A2780cisR cisplatin-resistant ovarian cancer cells; test: 24-hour MTT chemosensitivity assay with 72-hour recovery, A2780cisR; assay type: cell-based, human; conditions: for IC50: read-out: IC50 values ±SD, A2780cisR; for Selectivity index (SI), A2780cisR: mean IC50 PNT2 / mean IC50 A2780cisR
Procedure: as §1, §2, §3

[3] = system: A2780 ovarian cancer cells; test: 24-hour MTT chemosensitivity assay with 72-hour recovery, A2780; assay type: cell-based, human; conditions: for Selectivity index (SI), A2780: mean IC50 PNT2 / mean IC50 A2780
Procedure: as §1, §2, §3

[4] = system: H460 non-small-cell lung cancer cells; test: 24-hour MTT chemosensitivity assay with 72-hour recovery, H460; assay type: cell-based
Procedure: as §1, §2, §3

A2780 cells = test: FITC annexin-V / PI apoptosis assay by flow cytometry; assay type: cell-based, human; conditions: A2780, 24 h, complexes 2×IC50, doxorubicin 0.5 µM; for viability at 0.5 µM: Homo sapiens
From the text: Annexin V‐FITC and propidium iodide (PI) have been used to distinguish between viable cells (Q1‐LL), early apoptotic cells (Q1‐LR), late apoptotic cells (Q1‐UR), and necrotic cells (Q1‐UL). […] Both complexes 6 and 8 induce apoptosis of A2780 cells and treatment with the complexes results in 99.6 % and 95.4 % of the cells in late apoptosis, respectively.
Figure 9 Flow cytometry analysis of A2780 cells exposed to complexes 6 or 8 at twice the IC50 concentration compared to a negative control. FITC reads annexin fluorescence and PE reads propidium iodide. Abbreviations: Q1‐UL=non‐viable cells; Q1‐UR=late‐stage apoptotic cells; Q1‐LR=early‐stage apoptotic cells and Q1‐LL=healthy cells.
FITC annexin‐V apoptosis assay: Flow cytometry analysis of apoptotic populations was carried out using the FITC Annexin V Apoptosis Detection Kit with PI (BioLegend®) according to manufacturer's instructions. Briefly, A2780 cells were seeded in 6‐well plates at a concentration of 1.0×10^6 cells per well and the plates were incubated for 24 h at 37 °C and a 5 % CO2 humidified atmosphere. […] Cells were then harvested using trypsin (without EDTA) and stained with PI/Annexin V‐FITC. After staining in the dark for 15 min at room temperature, cell pellets were analysed in a BD Accuri C6 Plus System flow cytometer and data was analysed using the BD Accuri C6 Plus software. These experiments were carried out in duplicate of triplicates in independent experiments; although only selected dot plots are shown, full numerical data and statistical analysis can be found in the Supporting Information.

[5] = 24 h exposure, 72 h recovery, MTT, read-out: IC50 values ±SD, PNT2
[6] = 24 h exposure, 72 h recovery, MTT
[7] = 24 h exposure, 72 h recovery, MTT, read-out: IC50 values ±SD, A2780
[8] = 24 h exposure, 72 h recovery, MTT, read-out: IC50 values ±SD, H460
[9] = Homo sapiens, PNT2, read-out: IC50 values ±SD, PNT2
[10] = Homo sapiens, A2780, read-out: IC50 values ±SD, A2780
[11] = Homo sapiens, NCI-H460, read-out: IC50 values ±SD, H460
[12] = Combined results, Average of two experiments

Cc1ccc(C(C)C)cc1.N#CC1=C(C#N)[S][Ru-]([P+](c2ccc(C(F)(F)F)cc2)(c2cccc(S(=O)(=O)[O-])c2)c2cccc(S(=O)(=O)[O-])c2)[S]1.[Na+].[Na+] [Complex 7, (η^6‐p‐cymene)(p‐DANPHOS)Ru(Mnt)]
IC50 [1, 5]: 2.2 ± 0.1 µM
IC50 [2, 6]: 2.3 ± 0.7 µM
Selectivity index (SI), A2780cisR [2]: 0.96
IC50 [3, 7]: 2.8 ± 0.8 µM
Selectivity index (SI), A2780 [3]: 0.79
IC50 [4, 8]: 2.3 ± 0.3 µM
Selectivity index (SI), H460 ([4]; mean IC50 PNT2 / mean IC50 H460): 0.96

CC(=O)N1CN2CN(C(C)=O)CP(C2)C1 [DAPTA, 3,7‐diacetyl‐1,3,7‐triaza‐5‐phosphabicyclo[3.3.1]nonane]
IC50 [1, 9]: ≥ 100 µM
IC50 ([2]; Homo sapiens, A2780cisR): ≥ 100 µM
IC50 [3, 10]: ≥ 100 µM
IC50 [4, 11]: ≥ 100 µM

COc1cccc2c1C(=O)c1c(O)c3c(c(O)c1C2=O)C[C@@](O)(C(=O)CO)C[C@@H]3O[C@H]1C[C@H](N)[C@H](O)[C@H](C)O1 [Doxorubicin, doxorubicin, reference compound]
Early apoptosis (Q1-LR) (A2780 cells; [12]): 0.0%
Late apoptosis (Q1-UR) (A2780 cells; [12]): 99.9%
Necrosis (Q1-UL) (A2780 cells; [12]): 0.1%
Early apoptosis (Q1-LR) (A2780 cells; Experiment 1, Average): 0.0%
Late apoptosis (Q1-UR) (A2780 cells; Experiment 1, Average): 99.9%
Necrosis (Q1-UL) (A2780 cells; Experiment 1, Average): 0.1%
Viable cells (Q1-LL) (A2780 cells; Experiment 1, Average): 0.0%
Early apoptosis (Q1-LR) (A2780 cells; Experiment 1, Rep 1): 0.0%
Late apoptosis (Q1-UR) (A2780 cells; Experiment 1, Rep 1): 99.8%
Necrosis (Q1-UL) (A2780 cells; Experiment 1, Rep 1): 0.2%
Early apoptosis (Q1-LR) (A2780 cells; Experiment 1, Rep 2): 0.0%
Late apoptosis (Q1-UR) (A2780 cells; Experiment 1, Rep 2): 99.9%
Necrosis (Q1-UL) (A2780 cells; Experiment 1, Rep 2): 0.1%
Early apoptosis (Q1-LR) (A2780 cells; Experiment 1, Rep 3): 0.0%
Late apoptosis (Q1-UR) (A2780 cells; Experiment 1, Rep 3): 100.0%
Necrosis (Q1-UL) (A2780 cells; Experiment 1, Rep 3): 0.0%
Early apoptosis (Q1-LR) (A2780 cells; Experiment 2, Average): 0.0%
Late apoptosis (Q1-UR) (A2780 cells; Experiment 2, Average): 99.9%
Necrosis (Q1-UL) (A2780 cells; Experiment 2, Average): 0.0%
Viable cells (Q1-LL) (A2780 cells; Experiment 2, Average): 0.0%
Early apoptosis (Q1-LR) (A2780 cells; Experiment 2, Rep 1): 0.0%
Late apoptosis (Q1-UR) (A2780 cells; Experiment 2, Rep 1): 99.9%
Necrosis (Q1-UL) (A2780 cells; Experiment 2, Rep 1): 0.0%
Early apoptosis (Q1-LR) (A2780 cells; Experiment 2, Rep 2): 0.0%
Late apoptosis (Q1-UR) (A2780 cells; Experiment 2, Rep 2): 99.9%
Necrosis (Q1-UL) (A2780 cells; Experiment 2, Rep 2): 0.1%
Early apoptosis (Q1-LR) (A2780 cells; Experiment 2, Rep 3): 0.0%
Late apoptosis (Q1-UR) (A2780 cells; Experiment 2, Rep 3): 100.0%
Necrosis (Q1-UL) (A2780 cells; Experiment 2, Rep 3): 0.0%
viability at 0.5 µM (A2780 cells; Combined results, Average of two experiments, read-out: Viable cells (Q1-LL)): 0%
viability at 0.5 µM (A2780 cells; Experiment 1, Average, read-out: Viable cells (Q1-LL)): 0%
viability at 0.5 µM (A2780 cells; Experiment 1, Rep 1, read-out: Viable cells (Q1-LL)): 0%
viability at 0.5 µM (A2780 cells; Experiment 1, Rep 2, read-out: Viable cells (Q1-LL)): 0%
viability at 0.5 µM (A2780 cells; Experiment 1, Rep 3, read-out: Viable cells (Q1-LL)): 0%
viability at 0.5 µM (A2780 cells; Experiment 2, Average, read-out: Viable cells (Q1-LL)): 0%
viability at 0.5 µM (A2780 cells; Experiment 2, Rep 1, read-out: Viable cells (Q1-LL)): 0%
viability at 0.5 µM (A2780 cells; Experiment 2, Rep 2, read-out: Viable cells (Q1-LL)): 0.1%
viability at 0.5 µM (A2780 cells; Experiment 2, Rep 3, read-out: Viable cells (Q1-LL)): 0%

C1N2CN3CN1CP(C2)C3 [PTA, 1,3,5‐triaza‐7‐phosphaadamantane]
IC50 [1, 9]: ≥ 100 µM
IC50 ([2]; Homo sapiens, A2780cisR): ≥ 100 µM
IC50 [3, 10]: ≥ 100 µM
IC50 [4, 11]: ≥ 100 µM

O=S(=O)(O)c1cccc(P(c2cccc(S(=O)(=O)O)c2)c2cccc(S(=O)(=O)O)c2)c1 [TPPTS, triphenylphosphine‐3,3′,3′′‐trisulfonic acid trisodium salt]
IC50 [1, 5]: ≥ 100 µM
IC50 [2, 6]: ≥ 100 µM
IC50 [3, 7]: ≥ 100 µM
IC50 [4, 8]: ≥ 100 µM

O=S(=O)(O)c1cccc(P(c2ccc(C(F)(F)F)cc2)c2cccc(S(=O)(=O)O)c2)c1 [p-DANPHOS, bis(3‐sulfonatophenyl)(4‐trifluoromethylphenyl)phosphine disodium dihydrate]
IC50 [1, 9]: ≥ 100 µM
IC50 ([2]; Homo sapiens, A2780cisR): ≥ 100 µM
IC50 [3, 10]: ≥ 100 µM
IC50 [4, 11]: ≥ 100 µM

(η^6‐p‐cymene)(DAPTA)Ru(Mnt) [Complex 5]
IC50 [1, 5]: 33 ± 1.4 µM
IC50 [2, 6]: 72 ± 6 µM
Selectivity factor (cross-resistance, resistance factor RF) ([2]; IC50 A2780cisR / IC50 A2780): 5.1
Selectivity index (SI), A2780cisR [2]: 0.49
IC50 [3, 7]: 14 ± 2 µM
Selectivity index (SI), A2780 [3]: 2.36
IC50 [4, 8]: ≥ 100 µM
